Literature values as cited in US10610500B2, “Chemosensory receptor ligand-based therapies” (Anji Pharma (US) LLC, priority 2011, dated 2020).

Key:
[1] = tested on: gut hormones; settings: humans
[2] = tested on: L cells located in the gut; settings: administration of metformin
[3] = molecular target: T1, sweet receptor (Homo sapiens, UniProt Q7RTX0+Q8TE23); settings: relative sweetness on a weight comparison basis to sucrose (=1.0); ranges: relative sweetness varied with the concentration of sucrose
T1 sequence (Q8TE23 20-839): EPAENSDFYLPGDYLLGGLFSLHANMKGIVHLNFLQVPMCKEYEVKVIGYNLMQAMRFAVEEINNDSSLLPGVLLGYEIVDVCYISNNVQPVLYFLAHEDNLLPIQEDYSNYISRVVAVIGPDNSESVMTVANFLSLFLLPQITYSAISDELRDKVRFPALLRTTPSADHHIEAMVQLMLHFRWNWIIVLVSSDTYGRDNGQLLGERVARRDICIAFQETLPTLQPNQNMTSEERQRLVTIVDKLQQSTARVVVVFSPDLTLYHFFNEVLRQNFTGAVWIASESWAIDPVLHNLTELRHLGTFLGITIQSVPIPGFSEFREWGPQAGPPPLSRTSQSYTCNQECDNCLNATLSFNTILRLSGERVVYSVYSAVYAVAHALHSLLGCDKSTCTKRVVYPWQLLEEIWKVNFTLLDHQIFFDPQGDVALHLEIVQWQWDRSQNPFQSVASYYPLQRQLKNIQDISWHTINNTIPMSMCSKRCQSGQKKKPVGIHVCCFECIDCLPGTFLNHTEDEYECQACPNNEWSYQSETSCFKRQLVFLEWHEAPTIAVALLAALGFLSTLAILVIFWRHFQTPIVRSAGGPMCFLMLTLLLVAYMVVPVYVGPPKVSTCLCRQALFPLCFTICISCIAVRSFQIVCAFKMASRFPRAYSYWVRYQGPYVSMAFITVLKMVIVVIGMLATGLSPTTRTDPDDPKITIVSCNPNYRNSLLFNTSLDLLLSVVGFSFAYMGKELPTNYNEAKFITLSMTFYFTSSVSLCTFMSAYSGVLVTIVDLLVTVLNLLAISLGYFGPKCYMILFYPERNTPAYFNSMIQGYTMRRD
T1 sequence (Q7RTX0 21-852): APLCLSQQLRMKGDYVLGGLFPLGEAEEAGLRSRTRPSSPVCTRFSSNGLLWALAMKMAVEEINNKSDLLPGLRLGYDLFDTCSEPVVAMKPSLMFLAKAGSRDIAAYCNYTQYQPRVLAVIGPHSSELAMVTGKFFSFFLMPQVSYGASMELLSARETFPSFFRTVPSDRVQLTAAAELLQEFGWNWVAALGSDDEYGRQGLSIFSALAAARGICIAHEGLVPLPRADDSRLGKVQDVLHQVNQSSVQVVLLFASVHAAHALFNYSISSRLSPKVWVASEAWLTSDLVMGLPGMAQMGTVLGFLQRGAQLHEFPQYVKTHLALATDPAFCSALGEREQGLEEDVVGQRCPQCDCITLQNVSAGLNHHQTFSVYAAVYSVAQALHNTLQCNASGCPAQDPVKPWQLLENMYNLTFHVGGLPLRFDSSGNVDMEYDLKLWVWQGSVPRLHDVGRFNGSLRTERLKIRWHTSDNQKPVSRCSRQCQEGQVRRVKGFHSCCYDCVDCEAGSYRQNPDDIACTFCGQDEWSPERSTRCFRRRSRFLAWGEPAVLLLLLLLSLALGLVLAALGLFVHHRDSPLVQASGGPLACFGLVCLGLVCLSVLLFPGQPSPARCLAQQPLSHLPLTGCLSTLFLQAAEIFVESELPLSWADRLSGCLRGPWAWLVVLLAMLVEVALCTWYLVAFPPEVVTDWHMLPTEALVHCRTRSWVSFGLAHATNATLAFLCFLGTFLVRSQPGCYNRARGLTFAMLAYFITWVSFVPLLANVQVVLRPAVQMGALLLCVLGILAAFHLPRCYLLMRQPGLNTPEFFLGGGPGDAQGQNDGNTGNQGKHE

| Compound | Sweetness/potency [3] | further results |
| --- | --- | --- |
| C=C1C[C@@]23CC[C@H]4[C@@](C)(CCC[C@@]4(C)C(=O)O[C@@H]4O[C@H](CO)[C@@H](O)[C@H](O)[C@H]4O)[C@@H]2CC[C@]1(O[C@@H]1O[C@H](CO)[C@@H](O)[C@H](O[C@@H]2O[C@H](CO)[C@@H](O)[C@H](O)[C@H]2O)[C@H]1O[C@@H]1O[C@H](CO)[C@@H](O)[C@H](O)[C@H]1O)C3 [Rebaudioside A] |  | gut hormones in the circulation [1]: no alterations |
| CN(C)C(=N)N=C(N)N [metformin] |  | release of GLP-1 from the L cells [2]: increases |
| CC1(C(=O)O)CCC2(C)CCC3(C)C(=CC(=O)C4C5(C)CCC(OC6OC(C(=O)O)C(O)C(O)C6OC6OCC(O)(CO)C6O)C(C)(C)C5CCC43C)C2C1 (centres unmarked) [Apioglycyrrhizin] | 300 |  |
| O=C/C=C/c1ccccc1 [Trans-Cinnamaldehyde] | 50 |  |
| Baiyunoside | 500 |  |
| Cyclocarioside A | 200 |  |
| COC(=O)[C@H]1O[C@@H](O[C@H]2[C@H](O[C@H]3CC[C@]45C[C@]46CC[C@]4(C)[C@@H]([C@H](C)[C@@H]7CC=C(C)C(=O)O7)CC[C@@]4(C)[C@@H]6CC[C@H]5[C@]3(C)C(=O)O)O[C@H](CO)[C@@H](O)[C@@H]2O)[C@H](O)[C@@H](O)[C@@H]1O [Abrusoside B] | 100 |  |
| COc1ccc(C2Oc3cc(O)cc(O)c3C(=O)C2OC(C)=O)cc1O (centres unmarked) [Dihydroquercetin 3-O-acetate 4'-methyl ether] | 400 |  |

Continued, in another order:

| Sweetness/potency [3] | Compound | further results |
| --- | --- | --- |
| 210 | C=C1C[C@@]23CC[C@H]4[C@@](C)(CCC[C@@]4(C)C(=O)O[C@@H]4O[C@H](CO)[C@@H](O)[C@H](O)[C@H]4O)[C@@H]2CC[C@]1(O[C@@H]1O[C@H](CO)[C@@H](O)[C@H](O)[C@H]1O[C@@H]1O[C@H](CO)[C@@H](O)[C@H](O)[C@H]1O)C3 [Stevioside] |  |
| 50 | Pterocaryoside A |  |
| 400 | COc1ccc([C@H]2Cc3cccc(O)c3C(=O)O2)cc1O [Phyllodulcin] |  |
| 600 | Polypodoside A |  |
| 30 | C=C1C[C@@]23CC[C@H]4[C@@](C)(CCC[C@@]4(C)C(=O)O[C@@H]4O[C@H](CO)[C@@H](O)[C@H](O)[C@H]4O)[C@@H]2CC[C@]1(O[C@@H]1O[C@H](CO)[C@@H](O)[C@H](O)[C@H]1O[C@@H]1O[C@@H](C)[C@H](O)[C@@H](O)[C@H]1O)C3 [Dulcoside A] |  |
| 54 | Scandenoside R6 |  |
| 95 | Periandrin II |  |
| 220 | CC1(C(=O)O)C=C2C3CCC4C5(C=O)CCC(OC6OC(C(=O)O)C(O)C(O)C6OC6OCC(O)C(O)C6O)C(C)(C)C5CCC4(C)C3(C)CCC2(C)CC1 (centres unmarked) [Periandrin V] |  |
| 150 | Rebaudioside B |  |
